Results taken from patent US20210401916A1, “COMPOSITION FOR PREVENTION AND TREATMENT OF MUSCULAR DISEASES OR FOR IMPROVEMENT OF MUSCLE FUNCTION CONTAINING 3,5-DICAFFEOYLQUINIC ACID OR CHRYSANTHEMUM EXTRACT” (Industry-Academic Cooperation Foundation, Yonsei University, priority 2016, published 2021).

Assays:
Format in all cases: cell-based
MuRF-1 = MuRF-1 mRNA expression (RT-PCR) in TNF-α-treated L6 myotubes; conditions: 50 ng/mL TNF-α, 1 or 10 μg/mL, 6 hours
Experimental: (§1) L6 myoblasts (ATCC), which are muscle cells, were added at 1×10^5 cell/mL to a 6-well plate with 10% FBS (Gibco)-containing DMEM (Hyclone). When the cell density reached approximately 80 to 85%, the medium in the well was removed, the cells were treated with 2% HS (Hyclone)-containing DMEM (Hyclone) to induce myotube differentiation. The differentiation was performed for total of 6 days by replacing the medium and a sample with fresh ones every two days. After differentiation, the 30% ethanol extract of Chrysanthemum prepared in Example 1-(2) was dissolved in DMEM (Hyclone) containing 50 ng/mL tumor necrosis factor alpha (TNF-α; PeproTech, Rocky Hills, N.J., USA) at 1 or 10 μg/mL, and used to treat the cells. After 6 hours, total RNA was isolated with a TRIzol reagent (Takara, Shiga, Japan). The isolated total RNA was quantified using a NanoDrop 1000 (Thermo Fisher Scientific Inc.). cDNA was synthesized from 16 μL of the quantified RNA using a Reverse Transcriptase Premix (ELPIS-Biotech, Daejeon, Korea) and a PCR machine (Gene Amp PCR System 2700; Applied Biosystems, Foster City, Calif., USA) under conditions of 42° C. for 55 minutes and 70° C. for 15 minutes. […]

PGC-1α = PGC-1α luciferase reporter (pTA-Luc-PGC-1α plasmid) in transfected COS7 cells; conditions: treated at 5, 10, 20, 40 or 60 μg/mL, **p<0.01, FIG. 11
Experimental: To confirm an effect of increasing an expression level of PGC-1α by treatment of COS7 cells with a Chrysanthemum extract, COS7 cells (ATCC) were transfected with a pTA-Luc-PGC-1α plasmid (Addgene) by the same method as described in Experimental Example 1-(1). Here, 10%, 30%, 50%, 70% and 90% ethanol extracts of Chrysanthemum, which were prepared in Example 1-(2), and the hot water extract of Chrysanthemum, which was prepared in Example 1-(5), were treated at 10 μg/mL.
To confirm an effect of increasing an expression level of PGC-1α by treatment of […] (ATCC) with the 95% ethanol extract of Chrysanthemum, the 95% ethanol extract of Chrysanthemum, prepared in Example 1-(2), was treated at 10 or 40 μg/mL by the same method as described in Experimental Example 1-(2).
(§2) To confirm an effect of increasing an expression level of PGC-1α by treatment of COS7 cells (ATCC) with 3,5-dicaffeoylquinic acid, the 3,5-dicaffeoylquinic acid obtained in Example 2 was treated at 5, 10, 20, 40 or 60 μg/mL by the same method as described in Experimental Example 1-(2), and the result is shown in FIG. 11.

SIRT1 = SIRT1 luciferase reporter (pTA-Luc-SIRT1 plasmid) in transfected COS7 cells; conditions: treated at 20, 40 or 60 μg/mL (5 to 60 μg/mL tested), **p<0.01, FIG. 10
Experimental: To confirm an effect of increasing an expression level of SIRT1 by treatment of COS7 cells (ATCC) with a Chrysanthemum extract, COS7 cells (ATCC) were transfected with a pTA-Luc-SIRT1 plasmid (Addgene) by the same method as described in Experimental Example 1-(1). Here, the 95% ethanol extract of Chrysanthemum prepared in Example 1-(2) was treated at 20, 30 or 40 μg/mL, and the result is shown in FIG. 4.
as §2, with “SIRT1” for “PGC-1α”, “1-(4),” for “1-(2),”, “10.” for “11.”

atrogin-1 = atrogin-1 mRNA expression (RT-PCR) in TNF-α-treated L6 myotubes; conditions: 50 ng/mL TNF-α, 1 or 10 μg/mL, 6 hours
Experimental: as §1

MyoD = MyoD mRNA expression (RT-PCR) during L6 myotube differentiation; conditions: L6 muscle cells, 10, 20 or 40 μg/mL during differentiation, FIG. 14
Experimental: (§3) To confirm the muscle differentiation-promoting activity of a Chrysanthemum extract in L6 myoblasts (ATCC), which are muscle cells, the cells were treated with the 30% ethanol extract of Chrysanthemum, prepared in Example 1-(2), at 5, 10 or 20 μg/mL to induced myotube differentiation by the same method as described in Experimental Example 1-(6). RT-PCR was performed with specific primers (Bioneer) by the same method as described in Experimental Example 2, and the result is shown in FIG. 9.
(§4) To confirm muscle protein synthesis-promoting activity by treatment of L6 myoblasts (ATCC), which are muscle cells, with 3,5-dicaffeoylquinic acid, the cells were treated with the 3,5-dicaffeoylquinic acid obtained in Example 2 at 10, 20 or 40 μg/mL, and then mRNA expression levels of MyoD and myogenin were confirmed by the same method as described in Experimental Example 4.

myogenin = myogenin mRNA expression (RT-PCR) during L6 myotube differentiation; conditions: L6 muscle cells, 10, 20 or 40 μg/mL during differentiation, FIG. 14
Experimental: as §3, §4

p-mTOR = p-mTOR protein expression (western blot) in TNF-α-treated L6 myotubes; conditions: 1 or 10 μg/mL, 24 hours
Experimental: To confirm the muscle protein expression-increasing activity of a Chrysanthemum extract in L6 myoblasts (ATCC), which are muscle cells, after differentiation by the same method as described in Experimental Example 2, a sample was treated with the 30% ethanol extract of Chrysanthemum prepared in Example 1-(2) at 1 or 10 μg/mL. The samples were treated for 24 hours, and then the cells were dissolved in an NP-40 buffer solution (ELPIS-Biotech) containing a proteinase inhibitor cocktail (Sigma, St. Louis, Mo., USA). The cells dissolved in the buffer solution were transferred to a 1.5 mL tube for centrifugation at 13,000 rpm for 10 minutes, and then only a supernatant was taken. The supernatant obtained previously was quantified by a Bradford method (Bio-Rad Laboratories Inc., Hercules, Calif., USA). The quantified protein was boiled for 5 minutes and isolated by electrophoresis with a 10% SDS-PAGE gel, and then the isolated proteins were transferred to a nitrocellulose membrane. p-mTOR, mTOR, p-4EBP1, 4EBP1, p-P70S6K and P70S6K and an α-tubulin primary antibody were diluted in 2.5% bovine serum albumin (BSA; bioWORLD, Dublin, Ohio, USA) at a ratio of 1:1000, and the proteins which were transferred to a nitrocellulose membrane were reacted at room temperature for 20 hours. […]

## O=C(/C=C/c1ccc(O)c(O)c1)O[C@@H]1CC(O)(C(=O)O)C[C@@H](OC(=O)/C=C/c2ccc(O)c(O)c2)C1O (stereo partly drawn) [3,5-dicaffeoylquinic acid, (3R,5R)-3,5-bis[[(E)-3-(3,4-dihydroxyphenyl)prop-2-enoyl]oxy]-1,4-dihydroxycyclohexane-1-carboxylic acid]
MuRF-1
  mRNA expression level of MuRF-1 increased by TNF-α: decreased in a concentration dependent manner
PGC-1α
  expression level of PGC-1α: significantly increased
SIRT1
  expression level of SIRT1: significantly increased
atrogin-1
  mRNA expression level of atrogin-1 increased by TNF-α: decreased in a concentration dependent manner
MyoD
  mRNA expression level of MyoD: increased in a concentration-dependent manner
myogenin
  mRNA expression level of myogenin: increased in a concentration-dependent manner
p-mTOR
  p-mTOR protein expression level reduced by TNF-α: increased in a concentration-dependent manner
